Results: PubChem BioAssay (NCI)
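Compound exposure: 48 hours, 5 concentrations, 96-well plates. Abbreviation: GI50, concentration required for 50% inhibition of growth. TGI: total growth inhibition.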

Assays:
Assay in all cases: NCI-60 cell line screen, 48 h
SNB-78 CNS = tested on: SNB-78 CNS
UACC-257 melanoma = tested on: UACC-257 melanoma
DMS 273 small cell lung = tested on: DMS 273 small cell lung
UACC-62 melanoma = tested on: UACC-62 melanoma
RXF 393 renal = tested on: RXF 393 renal
NCI-H226 lung = tested on: NCI-H226 lung
OVCAR-5 ovarian = tested on: OVCAR-5 ovarian
HT29 colon = tested on: HT29 colon
NCI/ADR-RES ovarian = tested on: NCI/ADR-RES ovarian
PC-3 prostate = tested on: PC-3 prostate

| Compound | TGI (SNB-78 CNS) | TGI (UACC-257 melanoma) | TGI (DMS 273 small cell lung) | TGI (UACC-62 melanoma) | TGI (RXF 393 renal) | TGI (NCI-H226 lung) | TGI (OVCAR-5 ovarian) | TGI (HT29 colon) | TGI (NCI/ADR-RES ovarian) | TGI (PC-3 prostate) | GI50 (NCI/ADR-RES ovarian) | GI50 (PC-3 prostate) | GI50 (NCI-H226 lung) | GI50 (UACC-257 melanoma) | GI50 (OVCAR-5 ovarian) | GI50 (HT29 colon) | GI50 (UACC-62 melanoma) | GI50 (RXF 393 renal) |
| --- | --- | --- | --- | --- | --- | --- | --- | --- | --- | --- | --- | --- | --- | --- | --- | --- | --- | --- |
| CCCC(Sc1ccccc1)P(=O)(c1ccccc1)c1ccccc1 (centres undefined) | > 100 µM | > 100 µM | > 100 µM | 37 µM | > 100 µM | – | – | – | – | – | – | – | – | – | – | – | – | – |
| Cc1ccc(Sc2ccc(C)cc2[N+](=O)[O-])c([N+](=O)[O-])c1 | > 100 µM | > 10 µM | > 100 µM | > 100 µM | > 100 µM | > 100 µM | > 100 µM | > 10 µM | – | – | – | – | – | – | – | – | – | – |
| C1CCOC2(CCC3(CC2)OCCCCO3)OC1 | > 100 µM | > 100 µM | > 100 µM | > 100 µM | > 100 µM | > 100 µM | – | – | – | – | – | – | – | – | – | – | – | – |
| C=CCC(OCCOCC)c1cc(OCCOCC)ccc1OC (centres undefined) | > 100 µM | > 100 µM | > 100 µM | > 100 µM | > 100 µM | > 100 µM | > 100 µM | > 100 µM | – | – | – | – | – | – | – | – | – | – |
| O=C1NC2C=CN(Cc3ccccc3)C=C2C(=O)N2CCCC12 (centres undefined) | > 100 µM | > 100 µM | > 100 µM | > 100 µM | > 100 µM | > 100 µM | > 100 µM | > 100 µM | – | – | – | – | – | – | – | – | – | – |
| C[C@@H](NC1CCC[C@H]1O)c1ccccc1 (some centres undefined) | > 100 µM | > 100 µM | > 100 µM | > 100 µM | > 100 µM | > 100 µM | > 100 µM | > 100 µM | – | – | – | – | – | – | – | – | – | – |
| COc1cc(/C=C/C(=O)c2sc(NNC(C)=O)nc2C)ccc1O | > 100 µM | > 100 µM | > 100 µM | > 100 µM | > 100 µM | > 100 µM | > 100 µM | > 100 µM | – | – | – | – | – | – | – | – | – | – |
| COC(=O)C1=C(C(=O)OC)SC(=C(N=Nc2ccccc2)c2ccccc2)S1 | > 100 µM | > 100 µM | > 100 µM | > 100 µM | – | > 100 µM | > 100 µM | > 100 µM | – | – | – | – | – | – | – | – | – | – |
| O=C1CCC2(c3ccccc3)Nc3ncccc3N12 (centres undefined) | > 100 µM | > 100 µM | – | > 100 µM | > 100 µM | > 100 µM | > 100 µM | > 100 µM | – | – | – | – | – | – | – | – | – | – |
| CCC(/C=C/c1ccccc1)=N\Nc1ccc(Cl)c(Cl)c1 | – | > 100 µM | – | 31.5 µM | 58.4 µM | 72.7 µM | > 100 µM | > 100 µM | > 100 µM | > 100 µM | – | – | – | – | – | – | – | – |
| Cn1ccnc1C(=O)/C=C/c1ccc(CC(=O)Nc2ccc(C(F)(F)F)cc2)cc1 | – | > 16.7 µM | – | 7.65 µM | 5.49 µM | 16 µM | 5.21 µM | 9.02 µM | 10.9 µM | 4.6 µM | 4.32 µM | 1.01 µM | 4.19 µM | 8.03 µM | 2.45 µM | 3.96 µM | 3.16 µM | 2.72 µM |
| C=CC1C(OC2OC(CO)C(O)C(O)C2O)OC=C(C(=O)OC)C1CC=O (centres undefined) | > 100 µM | – | – | > 100 µM | > 100 µM | > 100 µM | – | – | – | – | – | – | – | – | – | – | – | – |
| CCCCN(CCCC)c1ccc(C(=NC(C)CCCN(CC)CC)c2ccc(N(C)C)cc2)cc1 (centres undefined) | – | 1.83 µM | – | 1.91 µM | 1.46 µM | 3.06 µM | 3.47 µM | 1.58 µM | 1.94 µM | 1.93 µM | 0.893 µM | 0.885 µM | 1.18 µM | 0.915 µM | 1.31 µM | 0.58 µM | 0.909 µM | 0.73 µM |
| CCOC(=O)c1nc(-c2ccccc2)oc1OCC | > 100 µM | – | > 100 µM | > 100 µM | > 100 µM | > 100 µM | – | > 100 µM | – | – | – | – | – | – | – | – | – | – |
| O=C(CN(/C=C/C(=O)C(F)(F)F)c1ccccc1)c1ccc(Cl)c(Cl)c1 | – | 27.4 µM | – | 21.3 µM | 52.5 µM | 27.9 µM | 33.9 µM | > 100 µM | 31.3 µM | 26.9 µM | 15.2 µM | 13.3 µM | 13.7 µM | 13.4 µM | 17 µM | 34.1 µM | 9.43 µM | 17.1 µM |
| C/C=C/C=C/CCCCCCCCCCCCCC1(OC)C=CC(CC(=O)OC)OO1 (centres undefined) | – | 35.4 µM | 3.03 µM | 28 µM | 15.3 µM | – | – | 3.43 µM | – | – | – | – | – | – | – | 1.82 µM | – | 4.24 µM |
| CCN1C(=O)N(CC)C2C1NN=c1s/c(=C\c3cc4ccccc4[nH]3)c(=O)n12 (centres undefined) | – | > 100 µM | – | 7.83 µM | 11.6 µM | 61.6 µM | > 100 µM | > 100 µM | 2.3 µM | > 100 µM | 0.0213 µM | < 0.015 µM | 0.186 µM | 12.2 µM | < 0.0128 µM | < 0.01 µM | < 0.0111 µM | < 0.0187 µM |
| CCOC(=O)C1=C(Nc2cccc3ccccc23)OC/C1=N\NC(=O)c1ccccc1O | – | 77.1 µM | > 61.1 µM | 48.9 µM | > 37.5 µM | > 100 µM | > 100 µM | > 88.5 µM | – | – | – | – | – | – | – | – | – | – |
| Nc1c(C(=O)Nc2ccccc2)sc2nc3c(cc12)CN(Cc1ccccc1)CC3 | – | > 100 µM | – | > 100 µM | 54.3 µM | > 100 µM | > 100 µM | > 100 µM | > 100 µM | > 100 µM | 16.3 µM | 27.1 µM | 4.91 µM | 52.8 µM | > 100 µM | 24.7 µM | 13.9 µM | 3.15 µM |
| COc1cc(C(=O)/C=C/c2cccnc2Nc2ccccc2)cc(OC)c1OC | – | 2.86 µM | – | 2.6 µM | 2.37 µM | 2.58 µM | 3.11 µM | 2.15 µM | 4.56 µM | 3.18 µM | 1.03 µM | 1.1 µM | 1.23 µM | 1.51 µM | 1.54 µM | 0.514 µM | 1.29 µM | 1.12 µM |
| S=C(Nc1cc(Cl)c(Cl)cc1Cl)SCc1ccccc1 | – | 37.6 µM | – | > 100 µM | > 100 µM | 42.4 µM | 46.5 µM | 43.7 µM | 54.6 µM | > 100 µM | – | – | – | – | – | – | – | – |
| CCC1CCc2c(OC)ccc(OCC(=O)O)c2C1=O (centres undefined) | > 100 µM | > 100 µM | > 100 µM | > 100 µM | > 100 µM | > 100 µM | > 100 µM | – | – | – | – | – | – | – | – | – | – | – |
| Cc1[nH]c2ccccc2c1CCNCc1ccc(/C=C/C(=O)NO)cc1 | – | 0.0447 µM | – | 0.0229 µM | 0.025 µM | 0.172 µM | 0.0911 µM | 10.6 µM | 0.267 µM | 2.86 µM | 0.0211 µM | < 0.0114 µM | 0.0305 µM | < 0.01 µM | < 0.01 µM | < 0.01 µM | < 0.01 µM | < 0.0104 µM |
